Results from US11510906B1, “Diazacyclobutene derivatives as anti-parasitic drug substances” (Clemson University, priority 2019, dated 2022).

System: Trypanosoma brucei brucei bloodstream form (BSF) parasites (cell line 90-13, a 427 strain)
Assay: Parasite viability assay (CellTiter Blue), bloodstream form African trypanosomes
Type: cell-based
Conditions: for % BSF Growth Inhibition @ 10 μM: 10 μM compound, 48 hours; for EC50: 48 hours at 37° C., averages of triplicates
Experimental: To determine the impact of diazacyclobutene derivatives on the growth of African trypanosomes (Trypanosoma brucei brucei) as a representative parasite, bloodstream form (BSF) parasites (cell line 90-13, a 427 strain at 1×10^5 cell/mL) were seeded into 384-well black plates in 40 μL HMI-9 supplemented with 10% fetal bovine serum and 10% Serum Plus (Sigma-Aldrich, St. Louis Mo.) in the presence of compound or equivalently diluted carrier. After 48 hours at 37° C. in 5% CO2, CellTiter Blue (8 μL, Promega, Madison Wis.) was added and the plates incubated an additional 3 hours. Fluorescence emission at A585 was then measured after excitation at A546 on a Synergy H1 Hybrid Reader (Biotek, Winooski Vt.). Averages of triplicates were calculated and fit to dose-response curves using Prism (Graphpad, San Diego Calif.) for the determination of EC50 values.

Row | Compound | EC50 [µM] | % BSF Growth Inhibition @ 10 μM [%]
1 | CSc1c(-c2ccccc2)n2c(=O)n(-c3ccccc3)c(=O)n12 [Compound 1] | > 10 | 35.6 ± 1.9
2 | CCCSc1c(-c2ccccc2)n2c(=O)n(-c3ccccc3)c(=O)n12 [Compound 3] | 5.83 ± 2.2 | 96.6 ± 0.3
3 | CCCCSc1c(-c2ccccc2)n2c(=O)n(-c3ccccc3)c(=O)n12 [Compound 4] | > 5 | 80.5 ± 2.1
4 | C[Se]c1c(-c2ccccc2)n2c(=O)n(-c3ccccc3)c(=O)n12 [Compound 17] | > 10 | 46.1 ± 6.2
5 | CCSc1c(-c2ccccc2)n2c(=O)n(-c3ccccc3)c(=O)n12 [Compound 2] | > 10 | 23.4 ± 5.7
6 | O=c1n(-c2ccccc2)c(=O)n2c(-c3ccccc3)c([Se]c3ccccc3)n12 [Compound 18] | – | 84.24 ± 8.21
7 | CCCCSc1c(CCCC)n2c(=O)n(-c3ccccc3)c(=O)n12 [Compound 15] | – | 59.2 ± 6.6
8 | CCCCCSc1c(-c2ccccc2)n2c(=O)n(-c3ccccc3)c(=O)n12 [Compound 5] | 2.65 ± 0.16 | 98.21 ± 0.17

Continued, in another order:

Row | EC50 [µM] | Compound | % BSF Growth Inhibition @ 10 μM [%]
9 | 2.04 ± 0.21 | CCCCCCCCSc1c(-c2ccccc2)n2c(=O)n(-c3ccccc3)c(=O)n12 [Compound 6] | 94.71 ± 3.48
10 | 7.08 ± 1.9 | CSc1c(-c2ccccc2)n2c(=O)n(-c3cccc(Cl)c3)c(=O)n12 [Compound 23] | –
11 | 0.386 ± 0.034 | O=c1n(-c2ccccc2)c(=O)n2c(-c3ccccc3)c(SCc3ccccc3)n12 [Compound 7] | 98.87 ± 2.68
12 | > 10 | CSc1c(-c2ccc(C)cc2)n2c(=O)n(-c3ccccc3)c(=O)n12 [Compound 9] | –
13 | > 10 | COc1cccc(-n2c(=O)n3c(SC)c(-c4ccccc4)n3c2=O)c1 [Compound 25] | –
14 | > 10 | Cc1ccc(S(=O)(=O)N(C)c2c(-c3ccccc3)n3c(=O)n(-c4ccccc4)c(=O)n23)cc1 [Compound 21] | 2.5 ± 4.3
15 | > 2.5 | CSc1c(-c2ccc(C(F)(F)F)cc2)n2c(=O)n(-c3ccccc3)c(=O)n12 [Compound 13] | 89.6 ± 2.8
16 | > 5 | COc1ccc(-c2c(SC)n3c(=O)n(-c4ccccc4)c(=O)n23)cc1 [Compound 11] | 77.1 ± 3.5
17 | 0.35 ± 0.04 | CCCCc1c(SC)n2c(=O)n(-c3ccccc3)c(=O)n12 [Compound 14] | 95.6 ± 1.2
18 | > 10 | O=c1n(-c2ccccc2)c(=O)n2c(-c3ccccc3)c(Sc3ccccc3)n12 [Compound 8] | 11.5 ± 7
19 | > 10 | Cc1ccc(S(=O)(=O)N(C)c2c(-c3ccc(C(F)(F)F)cc3)n3c(=O)n(-c4ccccc4)c(=O)n23)cc1 [Compound 22] | 0
20 | > 5 | CSc1c(-c2ccc(Cl)cc2)n2c(=O)n(-c3ccccc3)c(=O)n12 [Compound 12] | 62.2 ± 2.7
21 | 3.66 ± 1.7 | CCSc1c(-c2ccc(C)cc2)n2c(=O)n(-c3ccccc3)c(=O)n12 [Compound 10] | 95.2 ± 3.5
